{
  "source": "paper PMC10850145",
  "about": "“Hormonal steroids induce multidrug resistance and stress response genes in Neisseria gonorrhoeae by binding to MtrR” (Nature Communications, 2024)",
  "system": "mtrC-lacZ expression",
  "type": "cell-based, Neisseria gonorrhoeae",
  "settings": "for mtrC-lacZ β-galactosidase activity, Mean: left block of sheet (mtrCDE); for β-galactosidase activity, Mean: second (right) untitled block of sheet Figure S10 (mtrC)",
  "key": {"[1]": {"settings": "strain ΔmtrR + mtrR R176E, 6.25 µM hormone"}, "[2]": {"settings": "strain ΔmtrR + mtrR R176E, 12.5 µM hormone"}, "[3]": {"settings": "strain ΔmtrR + mtrR R176E, 25 µM hormone"}, "[4]": {"settings": "strain ΔmtrR + mtrR R176E, 50 µM hormone"}, "[5]": {"settings": "strain ΔmtrR + mtrR WT, 6.25 µM hormone"}, "[6]": {"settings": "strain ΔmtrR + mtrR WT, 12.5 µM hormone"}, "[7]": {"settings": "strain ΔmtrR + mtrR WT, 25 µM hormone"}, "[8]": {"settings": "strain ΔmtrR + mtrR WT, 50 µM hormone"}},
  "note": "Several values for one entry are separate records, joined by “and”; a condition that tells them apart may be missing. Equal entries are not always repeated. Where two headings read alike, the source gives them in different places.",
  "data": [
    {"compound": "CC(=O)[C@H]1CC[C@H]2[C@@H]3CCC4=CC(=O)CC[C@]4(C)[C@H]3CC[C@]12C", "note": "[Progesterone, progesterone]", "values": [
      {"measurement": "β-galactosidase activity, mtrC-lacZ, Mean", "setting": "strain WT (FA19/pLES94-mtrC), hormone 6.25 µM", "result": 97, "unit": "Miller units"},
      {"measurement": "β-galactosidase activity, mtrC-lacZ, Mean", "setting": "strain WT (FA19/pLES94-mtrC), hormone 12.5 µM", "result": 126, "unit": "Miller units"},
      {"measurement": "β-galactosidase activity, mtrC-lacZ, Mean", "setting": "strain WT (FA19/pLES94-mtrC), hormone 25 µM", "result": 146, "unit": "Miller units"},
      {"measurement": "β-galactosidase activity, mtrC-lacZ, Mean", "setting": "strain WT (FA19/pLES94-mtrC), hormone 50 µM", "result": 139, "unit": "Miller units"},
      {"measurement": "mtrC-lacZ β-galactosidase activity, Mean", "setting": "strain WT, 6.25 µM hormone", "result": 108, "unit": "Miller units"},
      {"measurement": "β-galactosidase activity, Mean", "setting": "strain WT, 6.25 µM hormone", "result": 36, "unit": "Miller units"},
      {"measurement": "mtrC-lacZ β-galactosidase activity, Mean", "setting": "strain WT, 12.5 µM hormone", "result": 144, "unit": "Miller units"},
      {"measurement": "β-galactosidase activity, Mean", "setting": "strain WT, 12.5 µM hormone", "result": 47, "unit": "Miller units"},
      {"measurement": "mtrC-lacZ β-galactosidase activity, Mean", "setting": "strain WT, 25 µM hormone", "result": 194, "unit": "Miller units"},
      {"measurement": "β-galactosidase activity, Mean", "setting": "strain WT, 25 µM hormone", "result": 70, "unit": "Miller units"},
      {"measurement": "mtrC-lacZ β-galactosidase activity, Mean", "setting": "strain WT, 50 µM hormone", "result": 222, "unit": "Miller units"},
      {"measurement": "β-galactosidase activity, Mean", "setting": "strain WT, 50 µM hormone", "result": 97, "unit": "Miller units"},
      {"measurement": "activation of mtrC", "setting": "strain producing MtrR R176E", "result": "almost no activation"},
      {"measurement": "β-galactosidase activity, mtrC-lacZ, Mean", "setting": "strain ΔmtrR (FA19 ∆mtrR/pLES94-mtrC), hormone 6.25 µM", "result": 210, "unit": "Miller units"},
      {"measurement": "β-galactosidase activity, mtrC-lacZ, Mean", "setting": "strain ΔmtrR (FA19 ∆mtrR/pLES94-mtrC), hormone 12.5 µM", "result": 191, "unit": "Miller units"},
      {"measurement": "β-galactosidase activity, mtrC-lacZ, Mean", "setting": "strain ΔmtrR (FA19 ∆mtrR/pLES94-mtrC), hormone 25 µM", "result": 234, "unit": "Miller units"},
      {"measurement": "β-galactosidase activity, mtrC-lacZ, Mean", "setting": "strain ΔmtrR (FA19 ∆mtrR/pLES94-mtrC), hormone 50 µM", "result": 188, "unit": "Miller units"},
      {"measurement": "β-galactosidase activity, mtrC-lacZ, Mean", "setting": "strain ΔmtrR + mtrR D171A (pGCC3-mtrR D171A), hormone 6.25 µM", "result": 146, "unit": "Miller units"},
      {"measurement": "β-galactosidase activity, mtrC-lacZ, Mean", "setting": "strain ΔmtrR + mtrR D171A (pGCC3-mtrR D171A), hormone 12.5 µM", "result": 142, "unit": "Miller units"},
      {"measurement": "β-galactosidase activity, mtrC-lacZ, Mean", "setting": "strain ΔmtrR + mtrR D171A (pGCC3-mtrR D171A), hormone 25 µM", "result": 168, "unit": "Miller units"},
      {"measurement": "β-galactosidase activity, mtrC-lacZ, Mean", "setting": "strain ΔmtrR + mtrR D171A (pGCC3-mtrR D171A), hormone 50 µM", "result": 106, "unit": "Miller units"},
      {"measurement": "mtrC-lacZ β-galactosidase activity, Mean", "setting": "[1]", "result": 217, "unit": "Miller units"},
      {"measurement": "β-galactosidase activity, Mean", "setting": "[1]", "result": 91, "unit": "Miller units"},
      {"measurement": "mtrC-lacZ β-galactosidase activity, Mean", "setting": "[2]", "result": 208, "unit": "Miller units"},
      {"measurement": "β-galactosidase activity, Mean", "setting": "[2]", "result": 92, "unit": "Miller units"},
      {"measurement": "mtrC-lacZ β-galactosidase activity, Mean", "setting": "[3]", "result": 226, "unit": "Miller units"},
      {"measurement": "β-galactosidase activity, Mean", "setting": "[3]", "result": 111, "unit": "Miller units"},
      {"measurement": "mtrC-lacZ β-galactosidase activity, Mean", "setting": "[4]", "result": 231, "unit": "Miller units"},
      {"measurement": "β-galactosidase activity, Mean", "setting": "[4]", "result": 98, "unit": "Miller units"},
      {"measurement": "β-galactosidase activity, mtrC-lacZ, Mean", "setting": "strain ΔmtrR + mtrR WT (pGCC3-mtrR), hormone 6.25 µM", "result": 84, "unit": "Miller units"},
      {"measurement": "β-galactosidase activity, mtrC-lacZ, Mean", "setting": "strain ΔmtrR + mtrR WT (pGCC3-mtrR), hormone 12.5 µM", "result": 89, "unit": "Miller units"},
      {"measurement": "β-galactosidase activity, mtrC-lacZ, Mean", "setting": "strain ΔmtrR + mtrR WT (pGCC3-mtrR), hormone 25 µM", "result": 113, "unit": "Miller units"},
      {"measurement": "β-galactosidase activity, mtrC-lacZ, Mean", "setting": "strain ΔmtrR + mtrR WT (pGCC3-mtrR), hormone 50 µM", "result": 129, "unit": "Miller units"},
      {"measurement": "mtrC-lacZ β-galactosidase activity, Mean", "setting": "[5]", "result": 95, "unit": "Miller units"},
      {"measurement": "β-galactosidase activity, Mean", "setting": "[5]", "result": 19, "unit": "Miller units"},
      {"measurement": "mtrC-lacZ β-galactosidase activity, Mean", "setting": "[6]", "result": 111, "unit": "Miller units"},
      {"measurement": "β-galactosidase activity, Mean", "setting": "[6]", "result": 24, "unit": "Miller units"},
      {"measurement": "mtrC-lacZ β-galactosidase activity, Mean", "setting": "[7]", "result": 124, "unit": "Miller units"},
      {"measurement": "β-galactosidase activity, Mean", "setting": "[7]", "result": 34, "unit": "Miller units"},
      {"measurement": "mtrC-lacZ β-galactosidase activity, Mean", "setting": "[8]", "result": 160, "unit": "Miller units"},
      {"measurement": "β-galactosidase activity, Mean", "setting": "[8]", "result": 45, "unit": "Miller units"},
      {"measurement": "mtrC-lacZ β-galactosidase activity, Mean", "setting": "strain ΔmtrR, 6.25 µM hormone", "result": 311, "unit": "Miller units"},
      {"measurement": "β-galactosidase activity, Mean", "setting": "strain ΔmtrR, 6.25 µM hormone", "result": 126, "unit": "Miller units"},
      {"measurement": "mtrC-lacZ β-galactosidase activity, Mean", "setting": "strain ΔmtrR, 12.5 µM hormone", "result": 285, "unit": "Miller units"},
      {"measurement": "β-galactosidase activity, Mean", "setting": "strain ΔmtrR, 12.5 µM hormone", "result": 129, "unit": "Miller units"},
      {"measurement": "mtrC-lacZ β-galactosidase activity, Mean", "setting": "strain ΔmtrR, 25 µM hormone", "result": 297, "unit": "Miller units"},
      {"measurement": "β-galactosidase activity, Mean", "setting": "strain ΔmtrR, 25 µM hormone", "result": 134, "unit": "Miller units"},
      {"measurement": "mtrC-lacZ β-galactosidase activity, Mean", "setting": "strain ΔmtrR, 50 µM hormone", "result": 286, "unit": "Miller units"},
      {"measurement": "β-galactosidase activity, Mean", "setting": "strain ΔmtrR, 50 µM hormone", "result": 97, "unit": "Miller units"},
      {"measurement": "β-galactosidase activity, Miller units (single replicate)", "setting": "ΔmtrR + mtrR WT in trans, 6.25 µM, first data set (c15-c36)", "result": 95, "unit": "Miller units"},
      {"measurement": "β-galactosidase activity, Miller units (single replicate)", "setting": "ΔmtrR + mtrR WT in trans, 6.25 µM, second data set (c53-c74)", "result": "19 Miller units and 16 Miller units and 17 Miller units and 23 Miller units"},
      {"measurement": "β-galactosidase activity, Miller units (single replicate)", "setting": "ΔmtrR + mtrR WT in trans, 12.5 µM, first data set (c15-c36)", "result": 114, "unit": "Miller units"},
      {"measurement": "β-galactosidase activity, Miller units (single replicate)", "setting": "ΔmtrR + mtrR WT in trans, 12.5 µM, second data set (c53-c74)", "result": "22 Miller units and 26 Miller units and 24 Miller units"},
      {"measurement": "β-galactosidase activity, Miller units (single replicate)", "setting": "ΔmtrR + mtrR WT in trans, 25 µM, first data set (c15-c36)", "result": 128, "unit": "Miller units"},
      {"measurement": "β-galactosidase activity, Miller units (single replicate)", "setting": "ΔmtrR + mtrR WT in trans, 25 µM, second data set (c53-c74)", "result": "39 Miller units and 34 Miller units and 32 Miller units and 31 Miller units"},
      {"measurement": "β-galactosidase activity, Miller units (single replicate)", "setting": "ΔmtrR + mtrR WT in trans, 50 µM, first data set (c15-c36)", "result": 194, "unit": "Miller units"},
      {"measurement": "β-galactosidase activity, Miller units (single replicate)", "setting": "ΔmtrR + mtrR WT in trans, 50 µM, second data set (c53-c74)", "result": "54 Miller units and 51 Miller units and 38 Miller units and 39 Miller units"},
      {"measurement": "β-galactosidase activity, Miller units (single replicate)", "setting": "ΔmtrR, 6.25 µM, first data set (c15-c36)", "result": "324 Miller units and 312 Miller units and 315 Miller units and 294 Miller units"},
      {"measurement": "β-galactosidase activity, Miller units (single replicate)", "setting": "ΔmtrR, 6.25 µM, second data set (c53-c74)", "result": "161 Miller units and 130 Miller units and 118 Miller units and 97 Miller units"},
      {"measurement": "β-galactosidase activity, Miller units (single replicate)", "setting": "ΔmtrR, 12.5 µM, first data set (c15-c36)", "result": "289 Miller units and 316 Miller units and 292 Miller units and 245 Miller units"},
      {"measurement": "β-galactosidase activity, Miller units (single replicate)", "setting": "ΔmtrR, 12.5 µM, second data set (c53-c74)", "result": "170 Miller units and 117 Miller units and 123 Miller units and 105 Miller units"},
      {"measurement": "β-galactosidase activity, Miller units (single replicate)", "setting": "ΔmtrR, 25 µM, first data set (c15-c36)", "result": "397 Miller units and 288 Miller units and 270 Miller units and 234 Miller units"},
      {"measurement": "β-galactosidase activity, Miller units (single replicate)", "setting": "ΔmtrR, 25 µM, second data set (c53-c74)", "result": "195 Miller units and 111 Miller units and 136 Miller units and 96 Miller units"},
      {"measurement": "β-galactosidase activity, Miller units (single replicate)", "setting": "ΔmtrR, 50 µM, first data set (c15-c36)", "result": "318 Miller units and 329 Miller units and 263 Miller units and 234 Miller units"},
      {"measurement": "β-galactosidase activity, Miller units (single replicate)", "setting": "ΔmtrR, 50 µM, second data set (c53-c74)", "result": "134 Miller units and 92 Miller units and 84 Miller units and 79 Miller units"}
    ]}
  ]
}
